Data on two molecules can be found in paper PMC4213378, “Pharmacokinetics and Efficacy of the Spleen Tyrosine Kinase Inhibitor R406 after Ocular Delivery for Retinoblastoma” (Pharmaceutical Research, 2014).

Series [1] is described as follows: Co-solvent solution formulation solubility matrix. The series is classed as physicochemical.
Series [2] deals with RB355 retinoblastoma cells. The series can be described thus: RB355 cell viability (Cell Titer Glo) after varied exposure durations. Type of series: cell-based. As for the experimental part:
RB355 retinoblastoma cells were maintained in RPMI medium (Lonza RPMI-1640) supplemented with 10% FBS (Equitech-Bio), penicillin, streptomycin, and glutamate (Gibco). BJ cells were grown in EMEM (Lonza) supplemented with 10% FBS, penicillin and streptomycin. 293T cells were grown in DMEM supplemented with 10% FBS, penicillin, streptomycin, and glutamate. Cells were passaged every 3-4 days or when they reached 70%-80% confluence.
RB335 cells were seeded in 6-well dishes. Seeded cells were incubated overnight at 37 °C in a humidified 5% CO2 incubator. Cells were treated with DMSO alone, 1, 2.5, or 5 µM R406 and returned to the incubator. At 0, 6, 12, 18, 24, and 72 h, the drugged media was removed from a subset of samples (n=3 samples per cell line) and replaced with drug-free media, washing out the R406 for the remainder of the 72 h incubation. After 72 hours, cells were suspended and aliquoted into a 96 well plate assaying viability (50 µL of cells per well, each sample assayed in duplicate and averaged). Plates were equilibrated at room temperature for 20 min before addition of 50 μL Cell Titer Glo (Promega) to each well. Plates were shaken on an orbital shaker for 2 min at 500 rpm. Luminescence was read after 15 min on an Envision plate reader (Perkin Elmer). Dissociated cells were also stained for caspase and EdU. […]
A general note: ATP-based viability assays read luminescence as a measure of living cells.

The next series deals with RB355 cells. The series can be described thus: Activated caspase 3 immunostaining of RB355 cells. Type of series: cell-based.
A short description of series [3]: Concentration and stability of R406 in cosolvent solution formulation. Type of series: physicochemical. The method, then: R406 stability in cosolvent solution: Precipitation of R406 in the cosolvent solution causes a drop in concentration after 48 hours of storage at room temperature (Table S3), but there is no loss of purity indicating R406 is chemically stable in the co-solvent solution for 48 hours at room temperature (Figure S4).

A further series relates to retinoblastoma cells. More on the design: method as in PMID 22237022. The note with it: cited from earlier work.
Setting [4] is: Storage Time = 48 hr, room temperature.

Turning to `COc1cc(Nc2ncc(F)c(Nc3ccc4c(n3)NC(=O)C(C)(C)O4)n2)cc(OC)c1OC.O=S(=O)(O)c1ccccc1` [R406 phenylsulfonate salt], the “R406 Solubility” value in series [1] (Trial 1: 0.1% Tyloxapol, 99.9% PBS) turned out to be 11.7 mM; in series [1] (Trial 4: 3% Glycerin, 97% PBS) it was 0.4 mM; in series [1] (Trial 5: 5% Cremaphor-eL, 95% PBS), 170.1 mM; in series [1] (Trial 6: 10% pG, 90% PBS) it was 0.4 mM; in series [1] (Trial 7: 15% pPG, 85% PBS), 15 mM; in series [1] (Trial 8: 0.2% Tween-80, 99.8% PBS), 399.2 mM. Besides, the “R406 Solubility” value is reported as 0.4 mM in series [1] (Trial 9: 100% PBS); 0.4 mM in series [1] (Trial 10: 2% PEG-8000, 0.2% Tween-80, 97.8% PBS); 0.6 mM in series [1] (Trial 11: 0.5% EtOH, 0.2% Tween-80, 85.8% PBS); 1.0 mM in series [1] (Trial 12: 3% Glycerin, 0.2% Tween-80, 96.8% PBS); 178.0 mM in series [1] (Trial 13: 5% Cremaphor-eL, 0.2% Tween-80, 94.8% PBS); 0.9 mM in series [1] (Trial 14: 10% pG, 0.2% Tween-80, 99.8% PBS). Moreover, the “R406 Solubility” value in series [1] (Trial 15: 15% pPG, 0.2% Tween-80, 85.8% PBS) is recorded as 31.4 mM; in series [1] (Trial 16: 2% PEG-8000, 0.5% EtOH, 97.5% PBS), 1.5 mM; in series [1] (Trial 17: 2% PEG-8000, 3% Glycerin, 95% PBS) it was 0.4 mM; in series [1] (Trial 18: 2% PEG-8000, 5% Cremaphor-eL, 93% PBS), 144.0 mM; in series [1] (Trial 19: 2% PEG-8000, 10% pG, 88% PBS) it was 1.4 mM; in series [1] (Trial 20: 2% PEG-8000, 15% pPG, 83% PBS), 22.9 mM. The “R406 Solubility” value in series [1] (Trial 21: 0.5% EtOH, 3% Glycerin, 96.5% PBS) stood at 0.4 mM; in series [1] (Trial 22: 0.5% EtOH, 5% Cremaphor-eL, 94.5% PBS), 183.9 mM; in series [1] (Trial 24: 0.5% EtOH, 15% pPG, 84.5% PBS), 18.4 mM; in series [1] (Trial 25: 3% Glycerin, 5% Cremaphor-eL, 92% PBS) it was 183.9 mM; in series [1] (Trial 26: 3% Glycerin, 10% pG, 87% PBS) it was 0.4 mM; in series [1] (Trial 27: 3% Glycerin, 15% pPG, 82% PBS) it was 18.2 mM. Further, the “R406 Solubility” value is recorded as 161.5 mM in series [1] (Trial 28: 5% Cremaphor-eL, 10% pG, 85% PBS); 138.0 mM in series [1] (Trial 29: 5% Cremaphor-eL, 15% pPG, 80% PBS); 23.3 mM in series [1] (Trial 30: 10% pG, 15% pPG, 75% PBS); 830.9 mM in series [1] (Trial 32: 0.5% EtOH, 5% Cremaphor-eL, 0.2% Tween-80, 94.3% PBS); 773.9 mM in series [1] (Trial 33: 0.5% EtOH, 3% Glycerin, 5% Cremaphor-eL, 0.2% Tween-80, 91.3% PBS).

As for `COc1cc(Nc2ncc(F)c(Nc3ccc4c(n3)NC(=O)C(C)(C)O4)n2)cc(OC)c1OC` [R406], in series [2] (1 μM R406, 48 – 72 h exposure, read-out: drop in viability compared to DMSO treated controls), the cytotoxicity is roughly 20%. Moreover, the “reduction in viability compared to DMSO treated controls” value in series [2] (1 μM R406, up to 24 h exposure) is given as “no reduction in cell viability”. The “caspase 3+ activation compared to untreated or DMSO treated cells” value in the series on RB355 cells (1 μM R406, any exposure time up to 48 h) is listed as “did not show any increase in caspase 3+ activation”. Also, the “proportion of activated caspase 3+ cells” value in the series with RB355 cells (2.5 and 5 μM R406, 0-72 h exposure) is on record as “increased with increasing exposure duration”. Besides, the “minimal exposure required to kill retinoblastoma cells in culture” value with RB355 cells (for at least 12 h) was greater than 1 µM. The “Average Concentration in cosolvent formulation” value came out at 743.6 µM in series [3] (Initial Concentration, room temperature) and 252.5 µM in series [3] (setting [4]). The “Percentage of Initial Concentration in cosolvent formulation” value in series [3] (setting [4]) is given as 34%. Moreover, the “maximum concentration of R406 in solution formulation” value in series [3] (cosolvent solution formulation with FDA approved ophthalmic adjuvants) is “approximately 900 μM”. The “time chemically stable in cosolvent solution formulation (no loss of purity)” value in series [3] (room temperature) was 48 h. The “induction of caspase-mediated cell death of retinoblastoma cells in vitro” value with retinoblastoma cells was “can induce caspase-mediated cell death”.
